According to ChEMBL document CHEMBL1921713, “A simple synthesis of APM ([p-(N-acrylamino)-phenyl]mercuric chloride), a useful tool for the analysis of thiolated biomolecules” (Bioorg Med Chem Lett, 2011):
Activity calls are given as the source filed them. The calls are words filed in the database; no cut-off is given here.

Tests used:
Format in all cases: nucleic-acid assay
[1] = system: Nucleic Acid; test: Binding affinity to Schizosaccharomyces pombe Non-thiolated Met-tRNA using 32P-labelled probe by PAGE analysis
[2] = system: Nucleic Acid; test: Binding affinity to ctu1-deficient Schizosaccharomyces pombe Lys-tRNA using 32P-labelled probe by PAGE analysis
[3] = system: Nucleic Acid; test: Binding affinity to Schizosaccharomyces pombe Thiolated Lys-tRNA using 32P-labelled probe by PAGE analysis

[p-(N-acrylamino)-phenyl]mercuric chloride
Activity [1]: inactive | Activity [2]: inactive | Activity [3]: Active
